From the supplement of paper PMC4862054

System: HDQ-P1
Assay: normalised viability (% of control), CellTiter-Blue; higher = more viable cells (about 100 = DMSO control)
Settings: 30 nM; incubation time: 72 h
Procedure, shortened: (§1)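 384-well plates were pre-loaded with compound in 5 µl medium before 20 µl of breast cancer cell suspension was seeded. Following 72 h incubation, 2.5 µl CellTiter-Blue reagent was added for 2 h at 37 °C. Fluorescence was read at 560/590 nm and plates were normalised to vehicle (100) and a positive kill control (0), checked by Z'-factor. Normalised viability is reported at a single listed concentration of the series.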

SMILES | normalised viability
CS(=O)(=O)OCCCCOS(C)(=O)=O [Busulfan] | 109%
O=c1[nH]cc(F)c(=O)[nH]1 [Fluorouracil] | 114%
CN1CCN(c2ccc3nc(-c4c(N)c5c(F)cccc5[nH]c4=O)[nH]c3c2)CC1 [Dovitinib] | 93.3%

Same assay, conditions: 100 nM; incubation time: 72 h

SMILES | normalised viability
COC1=CC(c2cc3ccccc3[nH]2)=N/C1=C\c1[nH]c(C)cc1C [Obatoclax] | 68.8%
O=c1[nH]cc(F)c(=O)[nH]1 [Fluorouracil] | 99.9%
CN1CCN(c2ccc3nc(-c4c(N)c5c(F)cccc5[nH]c4=O)[nH]c3c2)CC1 [Dovitinib] | 88.3%

Same assay, conditions: 300 nM; incubation time: 72 h

SMILES | normalised viability
CS(=O)(=O)OCCCCOS(C)(=O)=O [Busulfan] | 113%

Same assay, conditions: 1000 nM; incubation time: 72 h

SMILES | normalised viability
CS(=O)(=O)OCCCCOS(C)(=O)=O [Busulfan] | 94.4%

System: MDA-MB-468
Assay: as above
Settings: 1 nM; incubation time: 72 h
Procedure, shortened: as §1

SMILES | normalised viability
COc1ncc(-c2ccc3nccc(-c4ccnnc4)c3c2)cc1NS(=O)(=O)c1ccc(F)cc1F | 92.9%
Cn1c(=O)c(F)c(Nc2ccc(I)cc2F)c2c(=O)n(C[C@@H](O)CO)cnc21 [TAK-733] | 99.4%
CCS(=O)(=O)c1cccc(-c2cc(C(=O)NC3CCN(C)CC3)c(C)c3[nH]c4ncc(C)cc4c23)c1 [TAK-901] | 112%
COc1cccc2c1C(=O)c1c(O)c3c(c(O)c1C2=O)C[C@@](O)(C(C)=O)C[C@@H]3O[C@H]1C[C@H](N)[C@H](O)[C@H](C)O1 [Daunorubicin] | 102%

Same assay, conditions: 10 nM; incubation time: 72 h

SMILES | normalised viability
COC1=CC(c2cc3ccccc3[nH]2)=N/C1=C\c1[nH]c(C)cc1C [Obatoclax] | 85%
O=c1[nH]cc(F)c(=O)[nH]1 [Fluorouracil] | 99.4%
CN1CCN(c2ccc3nc(-c4c(N)c5c(F)cccc5[nH]c4=O)[nH]c3c2)CC1 [Dovitinib] | 104%

Same assay, conditions: 100 nM; incubation time: 72 h

SMILES | normalised viability
COc1ncc(-c2ccc3nccc(-c4ccnnc4)c3c2)cc1NS(=O)(=O)c1ccc(F)cc1F | 34.3%
Cn1c(=O)c(F)c(Nc2ccc(I)cc2F)c2c(=O)n(C[C@@H](O)CO)cnc21 [TAK-733] | 84.6%
CCS(=O)(=O)c1cccc(-c2cc(C(=O)NC3CCN(C)CC3)c(C)c3[nH]c4ncc(C)cc4c23)c1 [TAK-901] | 33.1%
CS(=O)(=O)OCCCCOS(C)(=O)=O [Busulfan] | 99.1%
COc1cccc2c1C(=O)c1c(O)c3c(c(O)c1C2=O)C[C@@](O)(C(C)=O)C[C@@H]3O[C@H]1C[C@H](N)[C@H](O)[C@H](C)O1 [Daunorubicin] | 52.2%

Same assay, conditions: 1000 nM; incubation time: 72 h

SMILES | normalised viability
COc1ncc(-c2ccc3nccc(-c4ccnnc4)c3c2)cc1NS(=O)(=O)c1ccc(F)cc1F | 7.54%
Cn1c(=O)c(F)c(Nc2ccc(I)cc2F)c2c(=O)n(C[C@@H](O)CO)cnc21 [TAK-733] | 95%
CCS(=O)(=O)c1cccc(-c2cc(C(=O)NC3CCN(C)CC3)c(C)c3[nH]c4ncc(C)cc4c23)c1 [TAK-901] | 63.6%
COC1=CC(c2cc3ccccc3[nH]2)=N/C1=C\c1[nH]c(C)cc1C [Obatoclax] | 29.5%
COc1cccc2c1C(=O)c1c(O)c3c(c(O)c1C2=O)C[C@@](O)(C(C)=O)C[C@@H]3O[C@H]1C[C@H](N)[C@H](O)[C@H](C)O1 [Daunorubicin] | 6.86%
O=c1[nH]cc(F)c(=O)[nH]1 [Fluorouracil] | 103%
CN1CCN(c2ccc3nc(-c4c(N)c5c(F)cccc5[nH]c4=O)[nH]c3c2)CC1 [Dovitinib] | 90.6%

Same assay, conditions: 10000 nM; incubation time: 72 h

SMILES | normalised viability
COC1=CC(c2cc3ccccc3[nH]2)=N/C1=C\c1[nH]c(C)cc1C [Obatoclax] | 31.7%
CS(=O)(=O)OCCCCOS(C)(=O)=O [Busulfan] | 109%
O=c1[nH]cc(F)c(=O)[nH]1 [Fluorouracil] | 76%
CN1CCN(c2ccc3nc(-c4c(N)c5c(F)cccc5[nH]c4=O)[nH]c3c2)CC1 [Dovitinib] | 72.6%

Same assay, conditions: 100000 nM; incubation time: 72 h

SMILES | normalised viability
CS(=O)(=O)OCCCCOS(C)(=O)=O [Busulfan] | 90.5%

System: CAL-85-1
Assay: as above
Settings: 0.3 nM; incubation time: 72 h
Procedure, shortened: as §1

SMILES | normalised viability
COc1ncc(-c2ccc3nccc(-c4ccnnc4)c3c2)cc1NS(=O)(=O)c1ccc(F)cc1F | 89.5%
Cn1c(=O)c(F)c(Nc2ccc(I)cc2F)c2c(=O)n(C[C@@H](O)CO)cnc21 [TAK-733] | 93.5%
CCS(=O)(=O)c1cccc(-c2cc(C(=O)NC3CCN(C)CC3)c(C)c3[nH]c4ncc(C)cc4c23)c1 [TAK-901] | 89.9%
COc1cccc2c1C(=O)c1c(O)c3c(c(O)c1C2=O)C[C@@](O)(C(C)=O)C[C@@H]3O[C@H]1C[C@H](N)[C@H](O)[C@H](C)O1 [Daunorubicin] | 87.3%

Same assay, conditions: 3 nM; incubation time: 72 h

SMILES | normalised viability
COc1ncc(-c2ccc3nccc(-c4ccnnc4)c3c2)cc1NS(=O)(=O)c1ccc(F)cc1F | 75.9%
Cn1c(=O)c(F)c(Nc2ccc(I)cc2F)c2c(=O)n(C[C@@H](O)CO)cnc21 [TAK-733] | 97.8%
CCS(=O)(=O)c1cccc(-c2cc(C(=O)NC3CCN(C)CC3)c(C)c3[nH]c4ncc(C)cc4c23)c1 [TAK-901] | 86.3%
COC1=CC(c2cc3ccccc3[nH]2)=N/C1=C\c1[nH]c(C)cc1C [Obatoclax] | 81.2%
COc1cccc2c1C(=O)c1c(O)c3c(c(O)c1C2=O)C[C@@](O)(C(C)=O)C[C@@H]3O[C@H]1C[C@H](N)[C@H](O)[C@H](C)O1 [Daunorubicin] | 86.8%
O=c1[nH]cc(F)c(=O)[nH]1 [Fluorouracil] | 105%
CN1CCN(c2ccc3nc(-c4c(N)c5c(F)cccc5[nH]c4=O)[nH]c3c2)CC1 [Dovitinib] | 85.3%

Same assay, conditions: 10 nM; incubation time: 72 h

SMILES | normalised viability
COc1ncc(-c2ccc3nccc(-c4ccnnc4)c3c2)cc1NS(=O)(=O)c1ccc(F)cc1F | 73.2%
Cn1c(=O)c(F)c(Nc2ccc(I)cc2F)c2c(=O)n(C[C@@H](O)CO)cnc21 [TAK-733] | 96.1%
CCS(=O)(=O)c1cccc(-c2cc(C(=O)NC3CCN(C)CC3)c(C)c3[nH]c4ncc(C)cc4c23)c1 [TAK-901] | 91.2%
COc1cccc2c1C(=O)c1c(O)c3c(c(O)c1C2=O)C[C@@](O)(C(C)=O)C[C@@H]3O[C@H]1C[C@H](N)[C@H](O)[C@H](C)O1 [Daunorubicin] | 89.1%

Same assay, conditions: 30 nM; incubation time: 72 h

SMILES | normalised viability
COC1=CC(c2cc3ccccc3[nH]2)=N/C1=C\c1[nH]c(C)cc1C [Obatoclax] | 77.7%
CS(=O)(=O)OCCCCOS(C)(=O)=O [Busulfan] | 106%
O=c1[nH]cc(F)c(=O)[nH]1 [Fluorouracil] | 101%
CN1CCN(c2ccc3nc(-c4c(N)c5c(F)cccc5[nH]c4=O)[nH]c3c2)CC1 [Dovitinib] | 86.4%

Same assay, conditions: 100 nM; incubation time: 72 h

SMILES | normalised viability
COC1=CC(c2cc3ccccc3[nH]2)=N/C1=C\c1[nH]c(C)cc1C [Obatoclax] | 79.5%
O=c1[nH]cc(F)c(=O)[nH]1 [Fluorouracil] | 115%
CN1CCN(c2ccc3nc(-c4c(N)c5c(F)cccc5[nH]c4=O)[nH]c3c2)CC1 [Dovitinib] | 97.5%

Same assay, conditions: 300 nM; incubation time: 72 h

SMILES | normalised viability
CS(=O)(=O)OCCCCOS(C)(=O)=O [Busulfan] | 101%

Same assay, conditions: 1000 nM; incubation time: 72 h

SMILES | normalised viability
CS(=O)(=O)OCCCCOS(C)(=O)=O [Busulfan] | 108%
